In data set [1] the test system is HCMV. Put plainly: HCMV antiviral plaque reduction assay in WI-38 cell culture monolayers. In kind it is cell-based, human cytomegalovirus, strain AD 169. As to conditions: Human betaherpesvirus 5, WI-38 cells, 5-7 days at 37° C., read-out: ID50 for HCMV. The method, then: (§1) Assays were performed in cell culture systems to determine the concentrations of compounds that are effective in preventing several kinds of viral infections.
(§2) HSV-1 (herpes simplex virus type 1, strain Schooler), HSV-2 (herpes simplex virus type 2, strain 186), VZV (varicella zoster virus, strain ELLEN), HCMV (human cytomegalovirus, strain AD 169 HIV (human immununodeficiency virus, strain HTLV-IIIB).
(§3) HSV-1, HSV-2, HCMV and VZV antiviral assays: Virus was adsorbed to WI-38 cell culture monolayers in 6 well culture plates (Costar, Cambridge, Mass.) for 1 hour prior to addition of maintenance medium containing duplicate dilutions of the test compound. Inhibition of plaque development was evaluated on fixed and stained monolayers after 4 days incubation at 37° C. for HSV-1 and HSV-2, and after 5-7 days incubation at 37° C. for HCMV and VZV. ID50 values were determined from the drug concentration which conferred at least a 50% plaque reduction compared to virus controls.

Data set [2] has as its system HSV-1. The data set is described as follows: HSV-1 antiviral plaque reduction assay in WI-38 cell culture monolayers. The settings on record: Human alphaherpesvirus 1, 96 h, WI-38 cells, 4 days at 37° C., read-out: ID50 for HSV-1. The format is cell-based, herpes simplex virus type 1, strain Schooler. The method, then:
as §1, §2, §3

For data set [3], the system named is VZV. Put plainly: VZV antiviral plaque reduction assay in WI-38 cell culture monolayers. In kind it is cell-based, varicella zoster virus, strain ELLEN. The settings on record: Human alphaherpesvirus 3, WI-38 cells, 5-7 days at 37° C., read-out: ID50 for VZV. As to the method:
as §1, §2, §3
On the technique in general: Plaque reduction counts the foci of infection that form in a cell layer.

For data set [4], the system named is HSV-2. Put plainly: HSV-2 antiviral plaque reduction assay in WI-38 cell culture monolayers. In kind it is cell-based, herpes simplex virus type 2, strain 186. As to conditions: Human alphaherpesvirus 2, 96 h, WI-38 cells, 4 days at 37° C., read-out: ID50 for HSV-2. As to the method: as §1, §2, §3
In data set [5] the test system is HIV. The data set is described as follows: HIV antiviral assay (reduction of viral cytopathic effect in MT-2 cells, XTT-PMS). The format is cell-based, human immununodeficiency virus, strain HTLV-IIIB. The settings on record: Human immunodeficiency virus 1, MT2, 168 h, 7 days, read-out: reduction in viral CPE (HIV). As to the method:
as §1, §2
HIV antiviral assay: Suspensions of MT-2 cells (S. Harada, et al., Science, 229, 563 (1985)) were infected at a multiplicity of infection of 0.03 TLID50 /cell with HIV (strain HTLV-III B). […] Following incubation, viable cell numbers were counted in each well using a colorimetric assay following incubation of cells with XTT-PMS solution (XTT tetrazolium reagent plus phenazine methosulfate PMS).
(§4) Percent reduction of viral cytopathic effect (CPE) in drug treated compared to untreated virus infected cells, and percent reduction of cell viability in drug treated uninfected cells compared to untreated controls were calculated and plotted versus the drug concentrations tested. […]
(Protection from cytopathic effect is a common read-out in antiviral testing.)

Data set [6] is described as follows: Reduction of cell viability in uninfected MT-2 cells (XTT-PMS). As to conditions: human, 7 days. The format is cell-based. As to the method: HIV antiviral assay: Suspensions of MT-2 cells (S. Harada, et al., Science, 229, 563 (1985)) were infected at a multiplicity of infection of 0.03 TLID50 /cell with HIV (strain HTLV-III B). After adsorption for 1-2 hours at 37° C., infected cells were diluted in growth medium (RPMI 1640 containing the antibiotics penicillin plus streptomycin and 10% fetal calf serum) to give a final cell concentration of 1×10^4 viable cells/culture well in the presence of serial dilutions of the test compound, starting at 100 μg/ml. Triplicate samples at each drug concentration were used. Cultures of uninfected MT-2 cells were similarly prepared and incubated with serial dilutions of test compound in duplicate. All assays were performed in 96 well disposable cell culture plates. Untreated (infected and uninfected) cells were included as controls. […] Following incubation, viable cell numbers were counted in each well using a colorimetric assay following incubation of cells with XTT-PMS solution (XTT tetrazolium reagent plus phenazine methosulfate PMS).
as §4

As for `C=C1[C@H](CO)[C@@H](O)C[C@@H]1n1cc(/C=C/Br)c(=O)[nH]c1=O` [[1S-[1α(E),3α,4β)]-5-(2-Bromoethenyl)-1-[4-hydroxy-3-(hydroxymethyl)-2-methylenecyclopentyl]-2,4(1H,3H)-pyrimidinedione], the IC50 in data set [1] is 291 µM; in data set [2], 0.6 to 1.5 µM; in data set [3], 0.3 to 0.6 µM; in data set [4], 29 to 73 µM.

Turning to `C=C1[C@H](CO)[C@@H](O)C[C@@H]1n1cnc2c(N)ncnc21` [[1R-(1α,3α,5β)]-3-(6-Amino-9H-purin-9-yl)-5-hydroxy-2-methylenecyclopentanemethanol], the inhibition at 27 µM in data set [5] (at 27 μM) was 50%. The IC50 in data set [1] was greater than 38 µM; in data set [2], 191 to 383 µM; in data set [3] it was greater than 96 µM; in data set [4] it was 191 to 383 µM. The cytotoxicity at 168 h, 27 µM in data set [6] (at 27 μM) was found to be 23%.

With `C=C1[C@H](CO)[C@@H](O)C[C@@H]1n1cnc2c(=O)[nH]c(N)nc21` [[1S-(1α,3α,4β)]-2-Amino-1,9-dihydro-9-[4-hydroxy-3-(hydroxymethyl)-2-methylenecyclopentyl]-6H-purin-6-one], in data set [5] (at 12 μM), the inhibition at 12 µM was 41%. The IC50 was 90 µM in data set [1], 3.6 µM in data set [2], 18 to 36 µM in data set [3] and 7.2 to 18 µM in data set [4]. Moreover, in data set [6] (at 12 μM), the cytotoxicity at 168 h, 12 µM worked out at 4%.

Take `C=C1[C@H](CO)[C@@H](O)C[C@@H]1n1cc(C)c(=O)[nH]c1=O` [[1S-(1α,3α,4β)]-1-[4-Hydroxy-3-(hydroxymethyl)-2-methylenecyclopentyl]-5-methyl-2,4(1H,3H)-pyrimidinedione]: the IC50 was no less than 396 µM in data set [1], 8 to 20 µM in data set [2], 40 to 400 µM in data set [3] and 40 to 100 µM in data set [4].

As for `C=C1[C@H](CO)[C@@H](O)C[C@@H]1n1cc(I)c(=O)[nH]c1=O` [[1S-(1α,3α,4β)]-1-[4-Hydroxy-3-(hydroxymethyl)-2-methylenecyclopentyl]-5-iodo-2,4(1H,3H)pyrimidinedione], the IC50 in data set [1] was 68 to 137 µM; in data set [2] it was 6 to 14 µM; in data set [3], 68 to 137 µM; in data set [4], greater than 275 µM.

As for `C=C1[C@H](CO)[C@@H](O)C[C@@H]1n1ccc(N)nc1=O`, the IC50 in data set [1] lay in the range of 2.1 to 4.2 µM; in data set [2], 4.2 to 8.4 µM; in data set [3], 4.2 to 42 µM; in data set [4], 2.1 to 4.2 µM.

With `C=C1[C@H](CO)[C@@H](O)C[C@@H]1n1cc(/C=C/I)c(=O)[nH]c1=O`, the IC50 in data set [1] is greater than 260 µM; in data set [2], 0.5 to 1.3 µM; in data set [3] it was 0.05 to 0.14 µM; in data set [4], 13 to 26 µM.

As to `C=C1[C@H](CO)[C@@H](O)C[C@@H]1n1cc(/C=C/Cl)c(=O)[nH]c1=O` [[1S-[1α(E),3α,4β]]-5-(2-Chloroethenyl)-1-[4-hydroxy-3-(hydroxymethyl)-2-methylenecyclopentyl]-2,4(1H,3H)-pyrimidinedione], the IC50 was 0.07 to 0.16 µM in data set [2], 1.7 µM in data set [3] and 2 µM in data set [4].
